The subject of one series is Akt/mTOR pathway. The series can be described thus: Model of minimal residual disease. Format: in vivo.
In the next series the test system is mTOR pathway markers. Particulars: tumors and PBMCs of HNSCC patients; cited from earlier work.
The test system of a further series is HNSCC cell lines. Kind of series: Inhibition of cell proliferation in HNSCC cell lines. Format: cell-based. The text has this: While curcumin can be used to treat these cancers, other compounds that act on these pathways may also be useful in treating these cancers and it should be readily recognized that such compounds could also be delivered by including in the formulations described herein.

Series [1] relates to normal fibroblast cell line CCL110. The series can be described thus: Effect on proliferation of normal fibroblast cell line. Format: cell-based.
Series [2] relates to NFκB and Akt/mTOR pathways. Kind of series: Modulation of NFκB and Akt/mTOR pathways in cell lines (western blot). Format: cell-based. (Immunoblotting shows a protein as a band on a membrane.)
A further series relates to SCC40 xenografts. The series can be described thus: Akt/mTOR pathway markers in SCC40 xenografts of treated mice. The class given is in vivo. Conditions: mice with SCC40 xenografts treated with curcumin.
For the next series, the system named is tumor cells. Kind of series: Chemoprevention model: pre-treatment before tumor cell injection, tumor volumes. The class given is in vivo, Balb/c nu/nu mice. Particulars: pre-treated 4 days prior to injecting tumor cells. How it is done:
Balb/c nu/nu mice were randomized into treatment groups. […] Tumors were measured over approximately three weeks. […] ANOVA analysis. […] This also points to its role as a chemopreventive agent rather than a therapeutic agent.

For another series, the system named is TPA-induced tumors. Particulars: topical application of 10 μmol twice weekly; cited from earlier work.
The next series has as its system DMBA-induced oral tumors. Particulars: 10 μmol topically 3 times/week for 24 weeks; cited from earlier work.
Series [3] relates to prostate cancer xenograft. Particulars: p.o. gavage 5 mg/day, 5 days/week for 4 weeks; cited from earlier work.
For series [4] the following is noted: following oral administration; cited from earlier work.

`CO[C@H]1C[C@@H]2CC[C@@H](C)[C@@](O)(O2)C(=O)C(=O)N2CCCC[C@H]2C(=O)O[C@H]([C@H](C)C[C@@H]2CC[C@@H](OC(=O)C(C)(CO)CO)[C@H](OC)C2)CC(=O)[C@H](C)/C=C(\C)[C@@H](O)[C@@H](OC)C(=O)[C@H](C)C[C@H](C)/C=C/C=C/C=C/1C` [CCI-779, temsirolimus]: in the series with Akt/mTOR pathway, the survival entry is “improve survival” and the tumor formation entry is “inhibit tumor formation”. Besides, the “modulation of mTOR pathway markers” value in the series with mTOR pathway markers is “modulation of these markers”.

For `COc1cc(/C=C/C(=O)CC(=O)/C=C/c2ccc(O)c(OC)c2)ccc1O` [curcumin], the growth inhibitory effect result with HNSCC cell lines (all 10 HNSCC cell lines tested to date) was “growth inhibitory effects”; in the series with HNSCC cell lines (three HNSCC cell lines, 10 μM, 48 hours), “significant growth inhibitory effects”. In the series on HNSCC cell lines (variety of HNSCC cell lines, in vitro), the “concentration giving consistent inhibition of cell proliferation” value is “less than 10 μM”. Moreover, in series [1], the “dose required to see effects” value fell in the range of 20 to 40 µM. Further, the “change in pNFκB” value is listed as “no change” in series [2] (PCI15a cells, 10 μM, 24 and 48 hours); “down-regulation” in series [2] (SCC40 cells, 10 μM, 48 hours). The “change in pAkt” value in series [2] (PCI15a cells, 10 μM, 48 hours) is reported as “down-regulated”; with SCC40 xenografts, “significant decrease”. Besides, the “change in pS6 downstream of mTOR” value in series [2] (PCI15a cells, 10 μM, 48 hours) is given as “down-regulated”. In addition, the “change in the Akt/mTOR pathway” value in series [2] (SCC40 cells, 10 μM) is listed as “no change”. Besides, the “modulation of the Akt/mTOR pathway” value in series [2] (SCC066 cells, 10 μM) was “did not show any modulation”. Also, in [2] (normal fibroblast cell line CCL110, 10 μM), the “change in pNFκB or Akt/mTOR” value is “no decrease”. The “change in pS6” value in the series with SCC40 xenografts is “significant decrease”. For the same molecule, the “difference in tumor volumes vs control (vehicle treated)” value with tumor cells (10 mg) was “no significant difference”; in the series with tumor cells (15 mg, about three weeks), “statistically significant difference”. Further, the “inhibition of the number of tumors per mouse” value in the series with TPA-induced tumors is given as 98%. Moreover, in the series with DMBA-induced oral tumors, the “reduction of the number of DMBA-induced oral tumors” value is listed as around 40%. Besides, the “inhibition of growth of prostate cancer xenograft” value in [3] is around 50%. Moreover, the bioavailability entry in series [4] is “low bioavailability”.

Source of the values: patent US9700525B2, “Continuous local slow-release of therapeutics for head and neck problems and upper aerodigestive disorders” (Board of Supervisors of Louisiana State University and …, priority 2008, dated 2017).
